Target: MAPK14;MAPK11;MAPK12;MAPK13 (human) (UniProt Q16539)
Experiment: Assessment of Activity of MAPK11, MAPK12, MAPK13 and MAPK14 Kinases

SMILES | IC50 [nM]
Cc1ccc(C(=O)NC2CC2)cc1Oc1cc(=O)n(C)c2c1cnn2-c1ccc(F)cc1F | < 25
CONC(=O)c1ccc(C)c(Nc2cc(=O)n(C)c3c2cnn3-c2ccc(F)cc2F)c1 | 1.6
Cc1ccc(C(=O)NC2CC2)cc1Nc1cc(=O)n(C)c2c1cnn2-c1cccc(F)c1 | < 25
Cc1ccc(C(=O)NC2CC2)cc1Oc1cc(=O)n(C)c2c1cnn2-c1cccc(F)c1 | < 25
CCn1c(=O)cc(Nc2cc(C(=O)NC3CC3)ccc2C)c2cnn(-c3ccc(F)cc3)c21 | < 25
Cc1ccc(C(N)=O)cc1Nc1cc(=O)n(C)c2c1cnn2-c1ccc(F)cc1F | < 25
CCn1c(=O)cc(Nc2cc(C(=O)NC3CC3)ccc2Cl)c2cnn(-c3ccc(F)cc3)c21 | 1.7
Cc1ccc(C(=O)NC2CC2)cc1Oc1cc(=O)n(C)c2c1cnn2-c1c(F)cccc1F | < 25
CCn1c(=O)cc(Oc2cc(C(=O)NC3CC3)ccc2C)c2cnn(-c3ccc(F)cc3)c21 | < 25

Results, then the compound that gave them:

IC50 [nM] | SMILES
< 25 | Cn1c(=O)cc(Nc2cc(C(=O)NC3CC3)ccc2F)c2cnn(-c3ccc(F)cc3F)c21
< 25 | Cc1ccc(C(=O)NC2CC2)cc1Nc1cc(=O)n(C)c2c1cnn2-c1cc(F)ccc1F
2.1 | Cn1c(=O)cc(Nc2cc(C(=O)NC3CC3)ccc2Cl)c2cnn(-c3ccc(F)cc3)c21
< 25 | Cc1ccc(C(=O)NC2CC2)cc1Nc1cc(=O)n(C)c2c1cnn2-c1c(F)cccc1F
< 25 | Cn1c(=O)cc(Nc2cc(C(=O)NC3CC3)ccc2Cl)c2cnn(-c3c(F)cccc3F)c21
1.2 | CCn1c(=O)cc(Nc2cc(C(=O)NC3CC3)ccc2Cl)c2cnn(-c3ccc(F)cc3F)c21
< 25 | Cc1ccc(C(=O)NC2CC2)cc1Oc1cc(=O)n(C)c2c1cnn2-c1cc(F)ccc1F
< 25 | Cn1c(=O)cc(Nc2cc(C(=O)NC3CC3)ccc2Cl)c2cnn(-c3cc(F)ccc3F)c21
< 25 | Cc1ccc(C(N)=O)cc1Nc1cc(=O)n(C)c2c1cnn2-c1cc(F)ccc1F

Reference: the Kinase Knowledgebase extract (Sharma et al. 2016)
